This note sets out measurements from BindingDB's records for doi:10.1016/j.bmc.2016.03.038 (2016).

pIC50: −log10 of the molar value.

Experiment [1] can be described thus: Inhibition of mouse GAT3 expressed in HEK293 cells assessed as [3H]GABA uptake preincubated for 25 mins followed by [3H]GABA/unlabeled GABA addition measured after 4 mins by liquid scintillation counting analysis.
The nature of experiment [2]: Inhibition of mouse GAT2 expressed in HEK293 cells assessed as [3H]GABA uptake preincubated for 25 mins followed by [3H]GABA/unlabeled GABA addition measured after 10 mins by liquid scintillation counting analysis.

Turning to `O=C(O)[C@H]1CNCC[C@@H]1CCCC/C=C/c1ccccc1-c1ccccc1`, in experiment [1], the negative-log IC50 (pIC50) – broadly, the IC50 on a negative log10 scale, so that one unit is a factor of ten – is 4.35.
With `O=C(O)[C@H]1CNCC[C@H]1CCCC/C=C/c1ccccc1-c1ccccc1`, the negative logarithm of the IC50 (pIC50) in experiment [2] was 4.28.
In the case of `O=C(O)[C@H]1CNCC[C@H]1CCCC#Cc1ccccc1Cc1ccccc1`, in experiment [1], the pIC50 is 4.42.
Turning to `O=C(O)[C@H]1CNCC[C@H]1CC/C=C/c1ccccc1Cc1ccccc1`, the pIC50 in experiment [1] is 4.20.
